Experimental findings from patent US20250235460A1, “COMBINATION THERAPY USING GLUCOSE-DEPENDENT INSULINOTROPIC POLYPEPTIDE RECEPTOR ANTAGONIST COMPOUNDS AND GLP-1 RECEPTOR AGONIST COMPOUNDS” (Pfizer Inc., priority 2024, published 2025) are described below.

For the assay, the target named is human GLP-1R (Homo sapiens, UniProt P43220, G168S). Put plainly: CHO GLP-1R Clone H6 cAMP HTRF agonist assay (Assay 1, high receptor density). The class given is cell-based. The following applies: for EC50: CHO GLP-1R clone H6, cAMP HTRF, geometric mean; for Emax: CHO GLP-1R clone H6, arithmetic mean, relative to saturating GLP-1 (1 μM), read-out: Assay 1 Emax (%). The source says:
In Table 5 and Table 6, assay data are presented to two (2) significant figures as the geometric mean (EC50s) and arithmetic mean (Emax) based on the number of replicates listed (Number). A blank cell means there was no data for that Example or the Emax was not calculated.
In general terms: Time-resolved FRET reads energy transfer from a long-lived donor to a nearby acceptor.

human GLP-1R, sequence (P43220 24-463 G168S): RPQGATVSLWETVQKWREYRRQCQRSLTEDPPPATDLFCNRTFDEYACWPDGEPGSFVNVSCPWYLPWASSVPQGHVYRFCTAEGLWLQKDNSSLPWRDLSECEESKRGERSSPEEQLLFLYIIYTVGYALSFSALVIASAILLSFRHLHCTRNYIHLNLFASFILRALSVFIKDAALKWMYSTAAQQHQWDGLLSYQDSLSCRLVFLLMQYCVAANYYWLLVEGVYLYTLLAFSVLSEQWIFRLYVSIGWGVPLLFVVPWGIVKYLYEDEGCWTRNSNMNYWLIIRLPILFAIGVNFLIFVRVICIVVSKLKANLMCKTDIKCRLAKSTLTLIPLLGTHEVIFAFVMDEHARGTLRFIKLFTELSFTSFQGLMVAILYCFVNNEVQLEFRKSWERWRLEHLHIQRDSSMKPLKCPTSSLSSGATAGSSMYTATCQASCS

For the compound `Cn1cnnc1CCn1c(CN2CCC(c3cccc(OCc4ccc(Cl)cc4F)n3)CC2)nc2ccc(C(=O)O)cc21` [Compound 328B, 2-[(4-{6-[(4-chloro-2-fluorobenzyl)oxy]pyridin-2-yl}piperidin-1-yl)methyl]-1-[2-(4-methyl-4H-1,2,4-triazol-3-yl)ethyl]-1H-benzimidazole-6-carboxylic acid], the concentration for a half-maximal effect (EC50) (commonly the concentration at which the effect is half-maximal) is 3100 nM and the maximal effect (Emax) (as a rule, the maximal effect, on the per cent scale that the assay sets) stood at 51%.
For the compound `CC1(Cn2c(CN3CCC(c4cccc(OCc5ccc(Cl)cc5F)n4)CC3)nc3ccc(C(=O)O)cc32)CCO1` (stereo not shown) [Compound 265B, 2-[(4-{6-[(4-chloro-2-fluorobenzyl)oxy]pyridin-2-yl}piperidin-1-yl)methyl]-1-[(2-methyloxetan-2-yl)methyl]-1H-benzimidazole-6-carboxylic acid], the EC50 was > 15000 nM and the Emax came to 100%.
`N#Cc1ccc(COc2cccc(C3CCN(Cc4nc5ccc(C(=O)O)cc5n4CC4CCO4)CC3)n2)c(F)c1` (stereo not shown) [Compound 109B, 2-[(4-{6-[(4-cyano-2-fluorobenzyl)oxy]pyridin-2-yl}piperidin-1-yl)methyl]-1-[oxetan-2-ylmethyl]-1H-benzimidazole-6-carboxylic acid]: the Emax was found to be 83%.
As to `CN1CC(Cn2c(CN3CCC(c4cccc(OCc5ccc(Cl)cc5F)n4)CC3)nc3ccc(C(=O)O)cc32)CC1=O` (stereo not shown) [Compound 317B, 2-[(4-{6-[(4-chloro-2-fluorobenzyl)oxy]pyridin-2-yl}piperidin-1-yl)methyl]-1-[(1-methyl-5-oxopyrrolidin-3-yl)methyl]-1H-benzimidazole-6-carboxylic acid], the EC50 was found to be 500 nM and the maximal response (Emax) stood at 69%.
The corresponding values for `COCCn1c(CN2CCN(c3cccc(OCc4ccc(Cl)cc4F)n3)C(C)(C)C2)nc2ccc(C(=O)O)cc21` [Compound 182B, 2-[(4-{6-[(4-chloro-2-fluorobenzyl)oxy]pyridin-2-yl}-3,3-dimethylpiperazin-1-yl)methyl]-1-(2-methoxyethyl)-1H-benzimidazole-6-carboxylic acid] are 1800 nM and 93%.
`Cn1c(CN2CCC(c3cccc(OCc4c(F)cccc4F)n3)CC2)nc2ccc(C(=O)O)cc21` [Compound 224B, 2-[(4-{6-[(2,6-difluorobenzyl)oxy]pyridin-2-yl}piperidin-1-yl)methyl]-1-methyl-1H-benzimidazole-6-carboxylic acid]: a half-maximal effect (EC50) was put at 1200 nM and the Emax was found to be 53%.
Regarding `Cc1ccccc1COc1cccc(C2CCN(Cc3nc4ccc(C(=O)O)cc4n3C)CC2)n1` [Compound 230B, 1-methyl-2-[(4-{6-[(2-methylbenzyl)oxy]pyridin-2-yl}piperidin-1-yl)methyl]-1H-benzimidazole-6-carboxylic acid], the midpoint of the response, the EC50, lay at 1700 nM and the maximal effect (Emax) stood at 80%.
The like results for `O=C(O)c1ccc2nc(CN3CCN(c4cccc(OCc5ccc(Cl)cc5F)n4)CC3)n(C[C@@H]3CCO3)c2c1` [Compound 119B, 2-[(4-{6-[(4-chloro-2-fluorobenzyl)oxy]pyridin-2-yl}piperazin-1-yl)methyl]-1-[(2S)-oxetan-2-ylmethyl]-1H-benzimidazole-6-carboxylic acid] were, in that order, 210 nM and 66%.
Take `O=C(O)c1ccc2nc(CN3CCC(c4cccc(OCc5ccc(Cl)cc5F)n4)CC3)n(CCC3CCOCC3)c2c1` [Compound 340B, 2-[(4-{6-[(4-chloro-2-fluorobenzyl)oxy]pyridin-2-yl}piperidin-1-yl)methyl]-1-[2-(tetrahydro-2H-pyran-4-yl)ethyl]-1H-benzimidazole-6-carboxylic acid]: the EC50 is 600 nM and the Emax amounted to 70%.
In the case of `O=C(O)c1ccc2nc(CN3CCC(c4cccc(OCc5ccc(Cl)cc5F)n4)CC3)n([C@H]3CCOC3)c2c1` [Compound 272B, 2-[(4-{6-[(4-chloro-2-fluorobenzyl)oxy]pyridin-2-yl}piperidin-1-yl)methyl]-1-[(3S)-tetrahydrofuran-3-yl]-1H-benzimidazole-6-carboxylic acid], the EC50 is > 20000 nM.
Take `O=C(O)c1ccc2nc(CN3CCC(c4cccc(OCc5ccc(Cl)cc5F)n4)CC3)n(CC3CC(F)(F)C3)c2c1` [Compound 326B, 2-[(4-{6-[(4-chloro-2-fluorobenzyl)oxy]pyridin-2-yl}piperidin-1-yl)methyl]-1-[(3,3-difluorocyclobutyl)methyl]-1H-benzimidazole-6-carboxylic acid]: a half-maximal response (EC50) required 2500 nM and the Emax was 71%.
`Cc1noc(CCn2c(CN3CCC(c4cccc(OCc5ccc(Cl)cc5F)n4)CC3)nc3ccc(C(=O)O)cc32)n1` [Compound 304B, 2-[(4-{6-[(4-chloro-2-fluorobenzyl)oxy]pyridin-2-yl}piperidin-1-yl)methyl]-1-[2-(3-methyl-1,2,4-oxadiazol-5-yl)ethyl]-1H-benzimidazole-6-carboxylic acid]: the midpoint of the response, the EC50, lay at 190 nM and the Emax turned out to be 74%.
As for `Cn1cncc1Cn1c(CN2CCC(c3cccc(OCc4ccc(C#N)cc4F)n3)CC2)nc2ccc(C(=O)O)nc21` [Compound 274B, 2-[(4-{6-[(4-cyano-2-fluorobenzyl)oxy]pyridin-2-yl}piperidin-1-yl)methyl]-3-[(1-methyl-1H-imidazol-5-yl)methyl]-3H-imidazo[4,5-b]pyridine-5-carboxylic acid], the concentration for a half-maximal effect (EC50) was > 20000 nM.
With `COCCn1c(CN2CCN(c3cccc(OCc4ccc(Cl)cc4F)n3)CC23CC3)nc2ccc(C(=O)O)cc21` [Compound 349B, 2-[(7-{6-[(4-chloro-2-fluorobenzyl)oxy]pyridin-2-yl}-4,7-diazaspiro[2.5]oct-4-yl)methyl]-1-(2-methoxyethyl)-1H-benzimidazole-6-carboxylic acid], it took 1200 nM to reach a half-maximal effect (EC50) and the Emax amounted to 58%.
Regarding `CC(F)(F)Cn1c(CN2CCC(c3cccc(OCc4ccc(Cl)cc4F)n3)CC2)nc2ccc(C(=O)O)cc21` [Compound 302B, 2-[(4-{6-[(4-chloro-2-fluorobenzyl)oxy]pyridin-2-yl}piperidin-1-yl)methyl]-1-(2,2-difluoropropyl)-1H-benzimidazole-6-carboxylic acid], the EC50 was found to be 130 nM and the maximum response (Emax) was 80%.
Take `CCn1cncc1Cn1c(CN2CCN(c3cccc(OCc4ccc(C#N)cc4F)n3)CC2)nc2ccc(C(=O)O)cc21` [Compound 152B, 2-[(4-{6-[(4-cyano-2-fluorobenzyl)oxy]pyridin-2-yl}piperazin-1-yl)methyl]-1-[(1-ethyl-1H-imidazol-5-yl)methyl]-1H-benzimidazole-6-carboxylic acid]: the EC50 was determined as 370 nM and the Emax came out at 75%.
With `O=C(O)c1ccc2nc(CN3CCC(c4cccc(OCc5ccc(Cl)cc5F)n4)CC3)n(CC3CCOCC3)c2c1` [Compound 324B, 2-[(4-{6-[(4-chloro-2-fluorobenzyl)oxy]pyridin-2-yl}piperidin-1-yl)methyl]-1-(tetrahydro-2H-pyran-4-ylmethyl)-1H-benzimidazole-6-carboxylic acid], the half-maximal effective concentration (EC50) is 1900 nM and the maximal effect (Emax) came to 79%.
As to `COCCCn1c(CN2CCC(c3cccc(OCc4ccc(Cl)cc4F)n3)CC2)nc2ccc(C(=O)O)cc21` [Compound 313B, 2-[(4-{6-[(4-chloro-2-fluorobenzyl)oxy]pyridin-2-yl}piperidin-1-yl)methyl]-1-(3-methoxypropyl)-1H-benzimidazole-6-carboxylic acid], a half-maximal effect (EC50) was put at 380 nM and the Emax turned out to be 75%.
Turning to `CN1CCC[C@@H]1Cn1c(CN2CCC(c3cccc(OCc4ccc(Cl)cc4F)n3)CC2)nc2ccc(C(=O)O)cc21` [Compound 309B, 2-[(4-{6-[(4-chloro-2-fluorobenzyl)oxy]pyridin-2-yl}piperidin-1-yl)methyl]-1-{[(2R)-1-methylpyrrolidin-2-yl]methyl}-1H-benzimidazole-6-carboxylic acid], the EC50 is 300 nM and the Emax is 66%.
The corresponding values for `COCCn1c(CN2CCN(c3nc(OCc4ccc(Cl)cc4F)ccc3F)C[C@@H]2C)nc2ccc(C(=O)O)cc21` [Compound 180B, 2-{[(2S)-4-{6-[(4-chloro-2-fluorobenzyl)oxy]-3-fluoropyridin-2-yl}-2-methylpiperazin-1-yl]methyl}-1-(2-methoxyethyl)-1H-benzimidazole-6-carboxylic acid] are > 17000 nM and 100%.
Consider `CC1(C)CC(Cn2c(CN3CCC(c4cccc(OCc5ccc(Cl)cc5F)n4)CC3)nc3ccc(C(=O)O)cc32)O1` (stereo not shown) [Compound 235B, 2-[(4-{6-[(4-chloro-2-fluorobenzyl)oxy]pyridin-2-yl}piperidin-1-yl)methyl]-1-[(4,4-dimethyloxetan-2-yl)methyl]-1H-benzimidazole-6-carboxylic acid], for which the EC50 came out at 390 nM and the Emax is 72%.
Consider `O=C(O)c1ccc2nc(CN3CCC(c4cccc(OCc5ccc(Cl)cc5F)n4)CC3)n([C@@H]3CCOC3)c2c1` [Compound 268B, 2-[(4-{6-[(4-chloro-2-fluorobenzyl)oxy]pyridin-2-yl}piperidin-1-yl)methyl]-1-[(3R)-tetrahydrofuran-3-yl]-1H-benzimidazole-6-carboxylic acid], for which the concentration for a half-maximal effect (EC50) is > 20000 nM.
Turning to `O=C(O)c1cnc2nc(CN3CCC(c4cccc(OCc5ccc(Cl)cc5F)n4)CC3)n(CC(F)(F)F)c2c1` [Compound 212B, 2-[(4-{6-[(4-chloro-2-fluorobenzyl)oxy]pyridin-2-yl}piperidin-1-yl)methyl]-1-(2,2,2-trifluoroethyl)-1H-imidazo[4,5-b]pyridine-6-carboxylic acid], the concentration for a half-maximal effect (EC50) came out at 190 nM and the maximal response (Emax) is 71%.
`Cn1cc(Cn2c(CN3CCC(c4cccc(OCc5ccc(Cl)cc5F)n4)CC3)nc3ccc(C(=O)O)cc32)cn1` [Compound 318B, 2-[(4-{6-[(4-chloro-2-fluorobenzyl)oxy]pyridin-2-yl}piperidin-1-yl)methyl]-1-[(1-methyl-1H-pyrazol-4-yl)methyl]-1H-benzimidazole-6-carboxylic acid] gave a concentration giving a half-maximal response (EC50) of 520 nM.
